# According to patent US10487313B2, “Efficient induction of definitive endoderm from pluripotent stem cells” (Novo Nordisk A/S, priority 2011, dated 2019):
# Entries after “also recorded” stand apart in the source; their conditions may differ.
# Legend:
# Assay type in all cases: cell-based, human
# [1] = system: chIPS4 cells; test: OCT4 and SOX17 protein ICC quantification during DE induction, DEF culture system; conditions: for OCT4 ICC % positive cells / SOX17 ICC % positive cells: CHIR 3 μM D1 then Activin A D2-3, or D'Amour protocol
# Procedure: (§1) Human embryonic stem (hES) cells SA121 and chIPS4 (Cellartis) were grown on human fibronectin (Sigma) in DEF culture media (Cellartis) with 30 ng/ml bFGF (Invitrogen) and 10 ng/ml Noggin (Peprotech) in 6-96 well plates. Cells were single cell passaged with Rock inhibitor Y-27632 (Calbiochem) and seeded at a density of 40000 cells/cm2 for experiments. Experiments were initiated 4 d after passage.
# (§2) Confluent cultures were washed once in RPMI1640 (Invitrogen) before 24 hour pre-treatment with 0,5-7μM CHIR99021 (Stemgent) in RPMI. Control cells were left untreated in RPMI and D'Amour cells were either left in RPMI or treated with AA (Peprotech)+Wnt3a (R&D Systems) without pre-treatment depending on experimental setup.
# (§3) After 24 hours, pretreated and control cells were washed once with RPMI before adding 100 ng/ml AA in RPMI. D'Amour cells were also treated with 100 ng/ml AA but with 0,2% FBS instead of B27. 24 h later, 2% B27 (Invitrogen) was added to the AA media for 2-3 d. Control cells were treated with B27 to prevent cell death and D'Amour cells with 2% FBS according to published protocol. Media was changed every day.
# • Day 1: Cells were washed carefully in prewarmed (37° C.) RPMI before starting the differentiation. Day1 medium was premixed (CHIR 3 μM in prewarmed RPMI+PEST) and gently added to cell culture. Volumes were adjusted according to plate formats. • Day 2: Cells were washed carefully in prewarmed (37° C.) RPMI before media change. Day2 medium was premixed (100 ng/ml Activin A in prewarmed RPMI+0.1% PEST) and gently added to cell culture. • Day 3: Day3&4 mediums were premixed (100 ng/ml Activin A and 2% B27 in prewarmed RPMI+0.1% PEST) and gently added to cell culture. • Day 4: DE was harvested or reseeded for further differentiation. Cells were checked under the microscope every day.
# Cells were washed in PBS+/+ and fixed in 4% formaldehyde for 30 min (10% formaline, VWR). The cells were then washed again three times in PBS and left in PBS (4° C.) until staining. Fixed cells were washed with PBS once, then permeabilized with 0.5% Triton X-100 in PBS for 6 min, washed in PBS and blocked with TNB buffer (0.1 M Tris-HCL pH 7.5, 0.15 M NaCl, 0.5% Blocking Reagent (Perkin Elmer)) for 30 min. Primary antibodies (goat-anti-SOX17 (AF1924, RnD Systems); goat-anti-Brachyury (AF2085, RnD Systems); mouse-anti-OCT4 (sc5279, SantaCruz Biotechnology); goat-anti-PDX1 (AB47383, Abcam)) were added in 0.1% TritonX-100+PBS for 1 h in RT or 4° C. O/N. After a thorough washing step in PBS, secondary antibodies were added together with DAPI in 0.1% Triton X-100+PBS for 45 min at RT, washed thoroughly in PBS and left in PBS until photodocumentation.
# Undifferentiated ChIPS4 cells (d0) were either pre-treated for 24 h with CHIR (3 μM) or directly exposed to AA (100 ng/ml) and Wnta3a (25 ng/ml) according to Kroon et al 2008. The cells were then washed and AA was added for 1-4 d.
# In addition, the most striking difference between the protocols could be seen in terms of morphology with a much higher degree of cell death during D'Amour treatment. To further strengthen the results, a quantification of SOX17 protein expression was thus performed. chIPS4 cells treated with either the CHIR- or D'Amour-protocol were fixed and stained using a SOX17-specific ab and the images were quantified in respect of total amounts and the percentage of SOX17-positive cells. […] In addition, the total amount of CHIR pre-treated cells was 25% higher than the number seen after D'Amour treatment.
# [2] = system: SA121 hES and chIPS4 iPS cells; test: Quantitative real-time PCR of PS and DE markers (Brachyury, SOX17) during DE induction
# Procedure: as §1, §2, §3
# RNA samples were collected after 24 h pre-treatment (D1), after 1 day of AA treatment (D2) and after 1-2 d of AA+B27 treatment (D3-4). Total RNA was extracted with the Rneasy Plus Mini kit (Qiagen) and quantitative real-time PCR was performed using the StepOnePLus system (Applied Biosystems).
# Undifferentiated SA121 hES and chIPS4 iPS cells in DEF media (DO) were cultured either in RPMI without CHIR (Ctrl D1) or treated for 24 h with CHIR in RPMI (CHIR D1). The cells were then washed to ensure absence of CHIR and then both conditions were treated with 1 d AA (Ctrl and CHIR d2). […] T fold inductions after 24 h CHIR treatment spanned between 500-100000 compared to undifferentiated cells (d0). T protein levels were also confirmed with ICC (FIG. 2C).
# The efficiency levels for both T and SOX17 were highly robust (n>60) and confirmed with IHC and SOX17 quantifications (FIG. 2C and Table 2.). […] SOX17 expression peaked already after one day of AA treatment when cells were subjected to CHIR for 24 h before AA induction.
# hES SA121 and ChIPS4 cells were treated with either CHIR (3 μM), BIO (0.5 μM), Wnt3a (200 ng/ml) or AA alone (100 ng/ml) for 24 h prior to AA addition to show CHIR specificity (d1). Additionally, D'Amour (protocol as described in Kroon et al 2008) was tested in parallel.
# (§4) Chir was titrated at concentrations between 1-7 uM and analyzed after 24 h Chir treatment (D1) and after 2 d of following AA treatment (D3).
# [3] = system: SA121 and chIPS cells; test: CHIR dose dependency: cell survival after titration and AA treatment; conditions: then 2 d AA
# Procedure: Brachyury expression was analysed after 24 h treatment in SA121 (FIG. 7A) and chIPS cells (FIG. 7C). SOX17 expression was analysed D3 in SA121 (FIG. 7B) and chIPS cells (FIG. 7D)).
# as §2, §4
# [4] = 24 h CHIR (2-7 μM) in RPMI-1640, then AA containing medium
smiles,measurement,setting,value
"Cc1c[nH]c(-c2cnc(NCCNc3ccc(C#N)cn3)nc2-c2ccc(Cl)cc2Cl)n1 [CHIR, CHIR99021]",OCT4 ICC % positive cells,"[1]; chIPS4, D1",91.2%
same,SOX17 ICC % positive cells,"[1]; chIPS4, D1",0.9%
same,OCT4 ICC % positive cells,"[1]; chIPS4, D2",3.1%
same,SOX17 ICC % positive cells,"[1]; chIPS4, D2",68.8%
same,OCT4 ICC % positive cells,"[1]; chIPS4, D3",3.7%
same,SOX17 ICC % positive cells,"[1]; chIPS4, D3",91.5%
same,total amount of cells higher than after D'Amour treatment,"[1]; chIPS4, d3, image quantification",25%
same,time of SOX17 mRNA expression peak,[2]; [4],2 days
same,time of SOX17 protein expression peak,[2]; [4],3 to 4 days
same,Sox17 expression,"[2]; CHIR 1 uM, 2 d after AA treatment (D3)",significantly lower
same,Brachyury induction,"[2]; CHIR 3 uM, after 24 h treatment (D1)",significantly seen; also recorded: significantly upregulated
same,DE induction after subsequent AA stimulation,"[2]; CHIR concentrations below 2 μM, after 72 hrs",not induced
same,Brachyury (T) fold induction compared to undifferentiated cells,"[2]; after 24 h CHIR treatment (D1), n>60",500-100000 fold
same,cell survival D3,[3]; CHIR 7 uM 24 h,did not survive d3
same,cell survival D3,[3]; CHIR 0.5-1 uM 24 h,did not survive d3
